Legend:
human Nav1.1 and Navβ1 = human Nav1.1 and Navβ1 (Homo sapiens, UniProt P35498); assay: Manual whole-cell patch clamp sodium current recording, HEK cells expressing hNav1.1 and Navβ1; assay type: cell-based; settings: for reduction in Nav1.1 peak INa: after 3.9 minutes of perfusion
Description: Cell lines: Human Embryonic Kidney (HEK) 293 cells stably expressing human VGSC a subunit Nav1.1 (GenBank accession number NP_008851.3) were a gift from Dr. Massimo Mantegazza. Human VGSC β1 subunit GenBank accession number NP_001028.1) cDNA was transfected into this line to generate a second, stable line. Cells were cultured in Dulbecco's Modified Eagle Medium containing (4.5 g/L D-glucose, L-glutamine, 110 mg/L sodium pyruvate, 200 μg/mL G418, 100 U/mL penicillin/streptomycin). All cells were maintained in an incubator at 37° C. with 5% CO2.
Manual Sodium Current Recording: Sodium current (INa) was measured at room temperature using the manual whole-cell patch clamp technique with previously described electrophysiological methods (Chen et al., J Biol Chem., 2012; 287 (46): 39061-39069). Cells were plated on 12 mm diameter clear glass poly-D-lysine coated coverslips (Neuvitro) and used for electrophysiological recordings within 48 hours after plating. Cells were identified with an AIR upright confocal microscope (Nikon). Micropipettes were obtained from 1.5 mm outer diameter capillary glass tubing (Harvard Apparatus) using a P-97 horizontal puller (Sutter Instrument Co.). Micropipettes were then polished using a MF-830 micro forge (Narishige) to obtain a resistance between 2.0 to 5.0 M (2. The intracellular solution contained the following (in mM): 1 NaCl, 125 N-methyl-D-glucamine, 2 MgCl2, 10 EGTA, 40 HEPES, 5 phosphocreatine-tris, 2 Mg-ATP, 0.2 Na2-GTP, 0.1 leupeptin, 270-275 mOsm, pH 7.2 with H2SO4. Extracellular solution contained the following (in mM): 120 NaCl, 1 BaCl2, 2 MgCl2, 0.2 CdCl2, 1 CaCl2), 20 sucrose, 10 glucose, 10 HEPES, 10 tetraethylammonium chloride, 300-305 mOsm, pH 7.35 with NaOH. Signals were amplified using a Multiclamp 700B amplifier (Molecular Devices). Data were acquired with a Digidata 1440A interface (Molecular Devices) and analyzed using pClamp10 offline. Pipette and whole-cell capacitance were fully compensated, and series resistance was predicted and compensated at 50%. Signals were low pass-filtered at 10 kHz, and data were sampled at 20 kHz. Residual linear capacity and leak currents were eliminated using online P/4 subtraction. Gravity-powered perfusion of XOB was used in all manual patch clamp experiments with a flow rate of 2-3 mL/min. All manual whole-cell INa recorded under XOB conditions was conducted after 3.9 minutes of perfusion unless indicated otherwise.

HiBiT-5-HT2C = HiBiT-5-HT2C (Homo sapiens, UniProt P28335); assay: cell-based
HiBiT-5-HT2C, sequence (P28335 33-458): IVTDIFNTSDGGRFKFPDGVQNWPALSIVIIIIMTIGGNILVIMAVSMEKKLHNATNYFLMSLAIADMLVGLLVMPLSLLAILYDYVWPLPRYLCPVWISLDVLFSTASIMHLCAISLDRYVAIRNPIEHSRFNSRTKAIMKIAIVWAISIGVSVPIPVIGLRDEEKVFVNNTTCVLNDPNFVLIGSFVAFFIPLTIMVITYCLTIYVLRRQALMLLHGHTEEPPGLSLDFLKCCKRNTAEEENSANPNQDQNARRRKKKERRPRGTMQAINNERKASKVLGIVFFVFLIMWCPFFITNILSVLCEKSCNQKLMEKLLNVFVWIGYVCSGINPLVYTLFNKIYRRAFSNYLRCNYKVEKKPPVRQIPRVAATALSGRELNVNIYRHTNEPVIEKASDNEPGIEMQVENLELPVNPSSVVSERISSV

For `COc1cc(CCNCCCCCCOCCCCc2ccccc2)c(OC)cc1Br` [XOB, N-(4-bromo-2,5-dimethoxyphenethyl)-6-(4-phenylbutoxy)hexan-1-amine], the “reduction in Nav1.1 peak INa” value (human Nav1.1 and Navβ1; 1 μM) was 35.3%, the “% Initial Peak INa” value (human Nav1.1 and Navβ1; 1 μM, time 0 s, step −120 mV to 0 mV) was 100% and the “% Initial Peak INa” value (human Nav1.1 and Navβ1; 1 μM, time 31.2 s) was 100.6%. For the same compound, the “% Initial Peak INa” value (human Nav1.1 and Navβ1; 1 μM, time 62.4 s) was 93.0%, the “% Initial Peak INa” value (human Nav1.1 and Navβ1; 1 μM, time 93.6 s) was 88.8% and the “% Initial Peak INa” value (human Nav1.1 and Navβ1; 1 μM, time 124.8 s) was 87.0%. The “% Initial Peak INa” value (human Nav1.1 and Navβ1; 1 μM, time 150.8 s) was 77.7%, the “% Initial Peak INa” value (human Nav1.1 and Navβ1; 1 μM, time 182 s) was 75.1% and the “% Initial Peak INa” value (human Nav1.1 and Navβ1; 1 μM, time 213.2 s) was 70.9%. For the same compound, the “% Initial Peak INa” value (human Nav1.1 and Navβ1; 1 μM, time 234 s) was 64.7%, the “reduction in Nav1.1 peak INa” value (human Nav1.1 and Navβ1; 5 μM) was 95.7% and the “% Initial Peak INa” value (human Nav1.1 and Navβ1; 5 μM, time 0 s, step −120 mV to 0 mV) was 100%. The “% Initial Peak INa” value (human Nav1.1 and Navβ1; 5 μM, time 31.2 s) was 95.4%, the “% Initial Peak INa” value (human Nav1.1 and Navβ1; 5 μM, time 62.4 s) was 40.0% and the “% Initial Peak INa” value (human Nav1.1 and Navβ1; 5 μM, time 93.6 s) was 23.7%. The “% Initial Peak INa” value (human Nav1.1 and Navβ1; 5 μM, time 124.8 s) was 11.2%, the “% Initial Peak INa” value (human Nav1.1 and Navβ1; 5 μM, time 150.8 s) was 9.3% and the “% Initial Peak INa” value (human Nav1.1 and Navβ1; 5 μM, time 182 s) was 5.4%. For the same compound, the “% Initial Peak INa” value (human Nav1.1 and Navβ1; 5 μM, time 213.2 s) was 6.4%, the “% Initial Peak INa” value (human Nav1.1 and Navβ1; 5 μM, time 234 s) was 4.3% and the “reduction in Nav1.1 peak INa” value (human Nav1.1 and Navβ1; 10 μM) was 98.6%. The “% Initial Peak INa” value (human Nav1.1 and Navβ1; 10 μM, time 0 s, step −120 mV to 0 mV) was 100%, the “% Initial Peak INa” value (human Nav1.1 and Navβ1; 10 μM, time 31.2 s) was 97.1% and the “% Initial Peak INa” value (human Nav1.1 and Navβ1; 10 μM, time 62.4 s) was 94.8%. The “% Initial Peak INa” value (human Nav1.1 and Navβ1; 10 μM, time 93.6 s) was 73.7%, the “% Initial Peak INa” value (human Nav1.1 and Navβ1; 10 μM, time 124.8 s) was 28.5% and the “% Initial Peak INa” value (human Nav1.1 and Navβ1; 10 μM, time 150.8 s) was 8.7%. The “% Initial Peak INa” value (human Nav1.1 and Navβ1; 10 μM, time 182 s) was 2.9%, the “% Initial Peak INa” value (human Nav1.1 and Navβ1; 10 μM, time 213.2 s) was 2.5% and the “% Initial Peak INa” value (human Nav1.1 and Navβ1; 10 μM, time 234 s) was 1.4%. For the same compound, the Ki (HiBiT-5-HT2C) was greater than 10 µM.

Source: US20250388529A1, “N-Substituted Phenylalkylamines and Their Use as Therapeutic Agents” (priority 2023, published 2025)
